ChEMBL document CHEMBL4033607, “Structurally Diverse Alkaloids from the Seeds of Peganum harmala” (J Nat Prod, 2017)

Legend:
Type in all cases: functional, cell-based
[1] = test system: HL-60; assay: Antiproliferative activity against human HL60 cells by tryphan blue assay
[2] = test system: SGC-7901; assay: Antiproliferative activity against human SGC7901 cells by MTT assay
[3] = test system: PC-3; assay: Antiproliferative activity against human PC3 cells by MTT assay

Compound | IC50 [1] | IC50 [2] | IC50 [3]
COc1ccc2c3c([nH]c2c1)-c1nc2ccccc2c(=O)n1CC3 | > 10 µM | > 10 µM | > 10 µM
COc1ccc2c3c([nH]c2c1)C(=O)NCC3 | > 10 µM | > 10 µM | > 10 µM
COc1cc(Cc2cncs2)cc(OC)c1O | > 10 µM | > 10 µM | > 10 µM
COc1ccc2c3ccnc4cc(C)c(=O)n(c2c1)c43 | > 10 µM | > 10 µM | > 10 µM
COc1ccc2c3c([nH]c2c1)C(c1cnc2ccccc2c1)=NCC3 | > 10 µM | > 10 µM | > 10 µM
COc1ccc2c(c1)[nH]c1c(CO)nccc12 | 4.36 µM |  | 
CCc1nccc2c1[nH]c1cc(OC)ccc12 | 9.05 µM |  | 
COC(=O)N1CC[C@@]2(O)c3ccc(OC)cc3N(C(=O)OC)[C@@]12C | > 10 µM | > 10 µM | > 10 µM
COC(=O)N1c2cc(OC)ccc2[C@@]2(O)CCN[C@@]12C | > 10 µM | > 10 µM | > 10 µM
COC(=O)/C=C1/c2[nH]c3cc(OC)ccc3c2CCN1C(C)=O | > 10 µM | > 10 µM | > 10 µM
COc1ccc2c(c1)[nH]c1c(C(N)=O)nccc12 | > 10 µM | > 10 µM | > 10 µM
COc1ccc2c3c([nH]c2c1)C(C)=[N+]([O-])CC3 | > 10 µM | > 10 µM | > 10 µM
COC(=O)N1CC[C@]2(O)c3ccc(OC)cc3N(C(=O)OC)[C@]12C | > 10 µM | > 10 µM | > 10 µM
COc1ccc2c(c1)[nH]c1c(C)[n+]([O-])ccc12 | > 10 µM | > 10 µM | > 10 µM
COc1ccc2c3c([nH]c2c1)-c1cc(CO)cc(=O)n1CC3 | > 10 µM | > 10 µM | > 10 µM
COc1ccc2c3c([nH]c2c1)-c1cccc(=O)n1CC3 | 9.25 µM |  | 
COC(=O)N1c2cc(OC)ccc2[C@]2(O)CCN[C@]12C | > 10 µM | > 10 µM | > 10 µM
COc1cc(Cc2cnc(C)s2)cc(OC)c1O | > 10 µM | > 10 µM | > 10 µM
COc1ccc2c(c1)[nH]c1c(C(C)=O)nccc12 [ARENARINE C] | > 10 µM | > 10 µM | > 10 µM
COc1ccc2c3c([nH]c2c1)C(C)=NCC3 [HARMALINE] | > 10 µM | > 10 µM | > 10 µM
Cc1nccc2c1[nH]c1ccccc12 [HARMAN] | > 10 µM | > 10 µM | > 10 µM
COC(=O)c1nccc2c1[nH]c1cc(OC)ccc12 [HARMIC ACID METHYL ESTER] | > 10 µM | > 10 µM | > 10 µM
